According to ChEMBL document CHEMBL3352040, “From human immunodeficiency virus non-nucleoside reverse transcriptase inhibitors to potent and selective antitrypanosomal compounds” (Bioorg Med Chem, 2014):
pEC50, pIC50: −log10 of the molar value. The source made the active and inactive calls. No cut-off for these calls is given here.

Experiments:
[1] = system: Human immunodeficiency virus 1; experiment: Antiviral activity against HIV1 infected in human TZM-bl cells assessed as viral inhibition pre-incubated for 30 mins prior to infection measured after 48 hrs by; format: functional, organism-based; settings: Human immunodeficiency virus 1, TZM-bl
Trypanosoma cruzi = experiment: Trypanocidal activity against nifurtimox-sensitive Trypanosoma cruzi Tulahuen CL2 infected in human MRC5 SV2 cells assessed as parasite growth inhibition after […] by beta-galactosidase assay; format: functional, organism-based
Plasmodium falciparum = experiment: Antiplasmodial activity against chloroquine-resistant Plasmodium falciparum K1 infected in human O positive erythrocyte assessed as reduction in parasitemia after 72 hrs; format: functional, organism-based; settings: K1, 72 h
Leishmania infantum = experiment: Antileishmanial activity against Leishmania infantum MHOM/MA (BE)/67 infected in primary peritoneal mouse macrophages assessed as reduction in parasite burdun; format: functional, organism-based
[2] = Cytotoxicity against human MRC5 SV2 cells assessed as reduction in cell growth after 72 hrs; format: cell-based; settings: MRC5, 72 h
[3] = system: Trypanosoma brucei rhodesiense; experiment: Antitrypanocidal activity against suramin-sensitive Trypanosoma brucei rhodesiense STIB-900 assessed as reduction in parasite growth after 72 hrs; format: functional, organism-based; settings: STIB-900, 72 h
[4] = Cytotoxicity against human TZM-bl cells assessed as cell viability after 48 hrs by WST1 assay; format: cell-based
[5] = system: Trypanosoma brucei brucei; experiment: Antitrypanocidal activity against suramin-sensitive Trypanosoma brucei brucei Squib427 assessed as reduction in parasite growth after 72 hrs; format: functional, organism-based; settings: Squib427, 72 h
[6] = Solubility of the compound in 10 mM PBS buffer solution at pH7.4 at 3.125 to 200 uM after 2 hrs; format: physicochemical; settings: pH 7.4
[7] = Metabolic stability in human plasma assessed as compound remaining after 1 hr; format: ADME, cell-free; settings: read-out: Stability
[8] = Metabolic stability in human liver microsomes assessed as compound remaining after 15 mins by UPLC analysis; format: ADME; settings: read-out: Stability
[9] = Octanol-phosphate buffer partition coefficient, log D of the compound at pH 7.4 after 2 hrs of shaking after 2 hrs; format: physicochemical
[10] = Metabolic stability in mouse plasma assessed as compound remaining after 1 hr; format: ADME, cell-free; settings: read-out: Stability
[11] = Metabolic stability in mouse liver microsomes assessed as compound remaining after 15 mins by UPLC analysis; format: ADME; settings: read-out: Stability
[12] = Stability of the compound in PBS buffer assessed as recovery at pH 7.4 measured after 24 hrs by UPLC analysis; format: physicochemical; settings: read-out: Drug recovery
[13] = system: Trypanosoma brucei brucei; experiment: Trypanocidal activity against suramin-sensitive Trypanosoma brucei brucei Squib427 infected in Swiss mouse assessed as survivors on day 14 post infection at 10 mg/kg first dose through orally and next four dosed administered intraperitoneally for 4 days; format: functional, organism-based; set-up: dose 10 mg/kg
[14] = system: Trypanosoma brucei brucei; experiment: Trypanocidal activity against suramin-sensitive Trypanosoma brucei brucei Squib427 infected in Swiss mouse assessed as mean survival time at 10 mg/kg first dose through orally and next four dosed administered intraperitoneally for 4 days (reference value: 7.2 days); format: functional; settings: route oral
[15] = system: Trypanosoma brucei brucei; experiment: Trypanocidal activity against suramin-sensitive Trypanosoma brucei brucei Squib427 infected in Swiss mouse assessed as reduction in parasitemia at 10 mg/kg first dose through orally and next four dosed administered intraperitoneally for 4 days; format: functional; settings: Squib427, 96 h, route oral

Row | Structure (SMILES) | pEC50 [1] | pIC50 (Trypanosoma cruzi) | pIC50 (Plasmodium falciparum) | pIC50 (Leishmania infantum) | pIC50 [2] | pIC50 [3] | CC50 at 48 h [4] | pIC50 [5] | further results
1 | Cc1cc(C#N)cc(C)c1Oc1nc(Nc2ccc(C#N)cc2)nc(N)c1Br [ETRAVIRINE] | 9.00 | < 4.19 | 4.19 | 4.38 | < 4.19 | < 4.19 | > 25 µM | < 4.19 | –
2 | c1ccc(Nc2ccnc(Nc3ccccc3)n2)cc1 | < 5.00 | 5.35 | 4.66 | 4.65 | 4.88 | 5.60 | – | 5.14 | –
3 | CC(C)=CCOc1cc(NC(=S)c2ccoc2C)ccc1Cl [UC 781] | 8.52 | < 4.19 | 4.56 | < 4.19 | < 4.19 | 4.41 | > 100 µM | < 4.19 | –
4 | Nc1nc(N)nc(Nc2ccc([As]3SCC(CO)S3)cc2)n1 (stereo unspecified) [MELARSOPROL] | – | – | – | – | 5.13 | 7.70 | – | 7.52 | solubility at 2 h [6]: 25 µM; remaining at 1 h [7]: 100%; remaining at […] [8]: 84%; logD at 2 h [9]: 4.51; remaining at 1 h [10]: 100%; remaining at […] [11]: 72%; remaining at 24 h [12]: 100%
5 | N#Cc1ccc(NC(=O)N[C@@H]2[C@@H]3COc4c(F)ccc(F)c4[C@@H]32)nc1 | 9.00 | < 4.19 | 4.19 | < 4.19 | < 4.19 | < 4.19 | – | < 4.19 | –
6 | CC1CS(=O)(=O)CCN1/N=C/c1ccc([N+](=O)[O-])o1 (stereo unspecified) [NIFURTIMOX] | – | 6.15 | – | – | – | – | – | – | –
7 | CCN(CC)CCCC(C)Nc1ccnc2cc(Cl)ccc12 (stereo unspecified) [CHLOROQUINE] | – | – | < 4.19 | – | – | – | – | – | –
8 | CO[C@H]1O[C@@H]2O[C@@]3(C)CC[C@H]4[C@H](C)CC[C@@H]([C@H]1C)[C@@]24OO3 | – | – | < 4.19 | – | – | – | – | – | –
9 | Cc1ccc(C(=O)Nc2ccc(S(=O)(=O)O)c3cc(S(=O)(=O)O)cc(S(=O)(=O)O)c23)cc1NC(=O)c1cccc(NC(=O)Nc2cccc(C(=O)Nc3cc(C(=O)Nc4ccc(S(=O)(=O)O)c5cc(S(=O)(=O)O)cc(S(=O)(=O)O)c45)ccc3C)c2)c1 [SURAMIN] | – | – | – | – | < 4.19 | 7.70 | – | 7.70 | Activity [13]: Active; MST [14]: >21 days; inhibition in vivo at 10 mg/kg [15]: 100%
10 | NS(=O)(=O)c1ccc(Oc2ccc(NC(=O)N[C@H]3[C@@H]4COc5c(F)ccc(F)c5[C@@H]43)nc2)cc1 | 9.00 | < 4.19 | 4.53 | 4.49 | – | 4.41 | > 100 µM | 4.49 | –
11 | O=C(Cn1ccnc1[N+](=O)[O-])NCc1ccccc1 [BENZNIDAZOLE] | – | 5.59 | – | – | – | – | – | – | –
12 | CCc1nn(CCO)c(CC)c1Oc1cc(C#N)cc(C#N)c1 [LERSIVIRINE] | 8.52 | < 4.19 | < 4.19 | < 4.19 | – | 4.26 | > 100 µM | < 4.19 | –
13 | CCCCCCCCCCCCCCCCOP(=O)([O-])OCC[N+](C)(C)C [MILTEFOSINE] | – | – | – | 5.21 | – | – | – | – | –
14 | Cc1ccnc2c1NC(=O)c1cccnc1N2C1CC1 [NEVIRAPINE] | 6.84 | < 4.19 | 4.19 | < 4.19 | < 4.19 | < 4.19 | > 50 µM | < 4.19 | –
15 | CC(C)Nc1cccnc1N1CCN(C(=O)c2cc3cc(NS(C)(=O)=O)ccc3[nH]2)CC1 [DELAVIRDINE] | 7.26 | < 4.19 | 4.19 | < 4.19 | < 4.19 | < 4.19 | > 50 µM | < 4.19 | –
16 | O=C1Nc2ccc(Cl)cc2[C@@](C#CC2CC2)(C(F)(F)F)O1 [EFAVIRENZ] | – | 5.07 | 4.36 | 5.13 | 4.59 | 4.71 | > 50 µM | 4.52 | –
17 | Cc1cc(C)c(Nc2ccnc(Nc3ccc(C#N)cc3)n2)c(C)c1 [DAPIVIRINE] | 8.70 | 5.90 | 5.31 | < 4.19 | < 4.19 | 4.71 | 2.47 µM | < 4.80 | –
